Test results: patent US9732051B2, “Isothiazoline compounds for combating invertebrate pests” (BASF SE, priority 2011, dated 2017)

What was measured:
Type in all cases: in vivo
[1] = system: Plutella xylostella; test: Diamond back moth leaf dip test; conditions: foliar, recorded 24, 72 and 120 hours after treatment, in comparison with untreated controls
Protocol: B.3 Diamond Back Moth (Plutella xylostella)
Leaves of Chinese cabbage were dipped in test solution and air-dried. Treated leaves were placed in petri dished lined with moist filter paper. Mortality was recorded 24, 72, and 120 hours after treatment.

[2] = system: Myzus persicae; test: Green peach aphid systemic test, artificial diet in 96-well plates; conditions: 72 h, 3 days, in comparison with untreated controls
Source text: B.4 Green Peach Aphid (Myzus persicae)
For evaluating control of green peach aphid (Myzus persicae) through systemic means the test unit consisted of 96-well-microtiter plates containing liquid artificial diet under an artificial membrane.
The compounds were formulated using a solution containing 75% v/v water and 25% v/v DMSO. Different concentrations of formulated compounds were pipetted into the aphid diet, using a custom built pipetter, at two replications.
After application, 5-8 adult aphids were placed on the artificial membrane inside the microtiter plate wells. The aphids were then allowed to suck on the treated aphid diet and incubated at about 23±1° C. and about 50±5% relative humidity for 3 days. Aphid mortality and fecundity was then visually assessed.

[3] = system: Ceratitis capitata; test: Mediterranean fruitfly microtiter plate diet test, egg and larval mortality; conditions: 120 h, 5 days, in comparison with untreated controls
Protocol: B.5 Mediterranean Fruitfly (Ceratitis capitata)
For evaluating control of Mediterranean fruitfly (Ceratitis capitata) the test unit consisted of microtiter plates containing an insect diet and 50-80 C. capitata eggs.
(§1) The compounds were formulated using a solution containing 75% v/v water and 25% v/v DMSO. Different concentrations of formulated compounds were sprayed onto the insect diet at 5 μl, using a custom built micro atomizer, at two replications.
(§2) After application, microtiter plates were incubated at about 28±1° C. and about 80±5% relative humidity for 5 days. Egg and larval mortality was then visually assessed.

[4] = system: Dichromothrips corbetti; test: Orchid thrips floral-immersion test; conditions: 96 h, after 4 days, in comparison with untreated controls
Protocol: B.6 Orchid Thrips (Dichromothrips corbetti)
Dichromothrips corbetti adults used for bioassay were obtained from a colony maintained continuously under laboratory conditions. For testing purposes, the test compound was diluted to a concentration of 500 ppm (wt compound: vol diluent) in a 1:1 mixture of acetone:water (vol:vol), plus 0.01% vol/vol Kinetic® surfactant.
Thrips potency of each compound was evaluated by using a floral-immersion technique. Plastic petri dishes were used as test arenas. All petals of individual, intact orchid flowers were dipped into treatment solution and allowed to dry. Treated flowers were placed into individual petri dishes along with 10-15 adult thrips. The petri dishes were then covered with lids. All test arenas were held under continuous light and a temperature of about 28° C. for duration of the assay. After 4 days, the numbers of live thrips were counted on each flower, and along inner walls of each petri dish. The level of thrips mortality was extrapolated from pre-treatment thrips numbers.

[5] = system: Nephotettix virescens; test: Rice green leafhopper spray test on rice seedlings; conditions: after 72 hours, in comparison with untreated controls
Protocol: B.7 Rice Green Leafhopper (Nephotettix virescens)
Rice seedlings were cleaned and washed 24 hours before spraying. The active compounds were formulated in 50:50 acetone:water (vol:vol), and 0.1% vol/vol surfactant (EL 620) was added. Potted rice seedlings were sprayed with 5 ml test solution, air dried, placed in cages and inoculated with 10 adults. Treated rice plants were kept at about 28-29° C. and relative humidity of about 50-60%. Percent mortality was recorded after 72 hours.

[6] = system: Spodoptera eridania; test: Southern armyworm spray test on lima bean plants; conditions: 96 h, 4 days after treatment, in comparison with untreated controls
Protocol: B.9 Southern Armyworm (Spodoptera eridania)
(§3) The active compounds were formulated in cyclohexanone as a 10,000 ppm solution supplied in tubes. The tubes were inserted into an automated electrostatic sprayer equipped with an atomizing nozzle and they served as stock solutions for which lower dilutions were made in 50% acetone:50% water (v/v). A nonionic surfactant (Kinetic®) was included in the solution at a volume of 0.01% (v/v).
Lima bean plants (variety Sieva) were grown 2 plants to a pot and selected for treatment at the 1st true leaf stage. Test solutions were sprayed onto the foliage by an automated electrostatic plant sprayer equipped with an atomizing spray nozzle. The plants were dried in the sprayer fume hood and then removed from the sprayer. Each pot was placed into perforated plastic bags with a zip closure. About 10 to 11 armyworm larvae were placed into the bag and the bags zipped closed. Test plants were maintained in a growth room at about 25° C. and about 20-40% relative humidity for 4 days, avoiding direct exposure to fluorescent light (24 hour photoperiod) to prevent trapping of heat inside the bags. Mortality and reduced feeding were assessed 4 days after treatment, compared to untreated control plants.

[7] = system: Heliothis virescens; test: Tobacco budworm microtiter plate diet test, egg and larval mortality; conditions: 120 h, 5 days, in comparison with untreated controls
Protocol: B.11 Tobacco Budworm (Heliothis virescens) I
as §1, with “For evaluating control of tobacco budworm (Heliothis virescens) the test unit consisted of 96-well-microtiter plates containing an insect diet and 15-25 H. virescens eggs. The” for “The”, “at 10” for “at 5”
as §2

[8] = system: Anthonomus grandis; test: Boll weevil microtiter plate diet test, egg and larval mortality; conditions: 120 h, 5 days, in comparison with untreated controls
Protocol: B.12 Boll Weevil (Anthonomus grandis)
For evaluating control of boll weevil (Anthonomusgrandis) the test unit consisted of 24-well-microtiter plates containing an insect diet and 20-30 A. grandis eggs.
The compounds were formulated using a solution containing 75% v/v water and 25% v/v DMSO. Different concentrations of formulated compounds were sprayed onto the insect diet at 20 μl, using a custom built micro atomizer, at two replications.
After application, microtiter plates were incubated at about 23±1° C. and about 50±5% relative humidity for 5 days. Egg and larval mortality was then visually assessed.

[9] = system: Megoura viciae; test: Vetch aphid leaf disk test in 24-well plates; conditions: foliar, 120 h, 5 days, in comparison with untreated controls
Protocol: B.10 Vetch Aphid (Megoura viciae)
For evaluating control of vetch aphid (Megoura viciae) through contact or systemic means the test unit consisted of 24-well-microtiter plates containing broad bean leaf disks.
The compounds were formulated using a solution containing 75% v/v water and 25% v/v DMSO. Different concentrations of formulated compounds were sprayed onto the leaf disks at 2.5 μl, using a custom built micro atomizer, at two replications.
After application, the leaf disks were air-dried and 5-8 adult aphids placed on the leaf disks inside the microtiter plate wells. The aphids were then allowed to suck on the treated leaf disks and incubated at about 23±1° C. and about 50±5% relative humidity for 5 days. Aphid mortality and fecundity was then visually assessed.

[10] = system: Tetranychus kanzawai; test: Red spider mite spray test on cowpea beans; conditions: after 72 h, in comparison with untreated controls
Protocol: B.14 Red Spider Mite (Tetranychus kanzawai)
The active compound was dissolved at the desired concentration in a mixture of 1:1 (v/v) distilled water:acetone. A surfactant (Alkamuls® EL 620) was added at the rate of 0.1% (v/v).
Potted cowpea beans of 7-10 days of age were cleaned with tap water and sprayed with 5 ml of the test solution using air driven hand atomizer. The treated plants were allowed to air dry and afterwards inculated with 20 or more mites by clipping a cassava leaf section with known mite population. Treated plants were placed inside a holding room at about 25-27° C. and about 50-60% relatice humidity.
Mortality was determined by counting the live mites 72 HAT. Percent mortality was assessed after 72 h.

[11] = system: Aphis craccivora; test: Cowpea aphid spray test on potted cowpea plants; conditions: assessed after 24, 72 and 120 hours, in comparison with untreated controls
Protocol: B.2 Cowpea Aphid (Aphis craccivora)
Potted cowpea plants colonized with approximately 100-150 aphids of various stages were sprayed after the pest population had been recorded. Population reduction was assessed after 24, 72, and 120 hours.

[12] = system: Leptinotarsa decemlineata; test: Colorado potato beetle spray test on eggplant foliage; conditions: foliar, 96 h, 4 days after treatment, in comparison with untreated controls
Protocol: B.13 Colorado Potato Beetle (Leptinotarsa decemlineata)
as §3
Eggplants were grown 2 plants to a pot and were selected for treatment at the 1st true leaf stage. Test solutions were sprayed onto the foliage by an automated electrostatic plant sprayer equipped with an atomizing spray nozzle. The plants were dried in the sprayer fume hood and then removed from the sprayer. The treated foliage was then cut and removed from the pot and placed in a 5-inch Petri dish lined with moistened filter paper. Five beetle larvae were introduced into each Petri dish and the dish was covered by a Petri dish lid. Petri dishes were maintained in a growth room at 25° C. and 20-40% relative humidity for 4 days, avoiding direct exposure to fluorescent light (24 hour photoperiod) to prevent trapping of heat inside the dishes. Mortality and reduced feeding were assessed 4 days after treatment, compared to untreated control plants.

CCSCC(=O)N(CC)Cc1ccc(C2=NSC(c3cc(Cl)cc(Cl)c3)(C(F)(F)F)C2)cc1C (stereo not drawn) [Compound 3-3, N-[[4-[5-(3,5-Dichlorophenyl)-5-(trifluoromethyl)-4H-isothiazol-3-yl]-2-methyl-phenyl]methyl]-N-ethyl-2-ethylsulfanyl-acetamide]
≥ 75%: mortality at 500 ppm [1] | mortality at 2500 ppm [2] | mortality at 2500 ppm [3] | mortality at 500 ppm [4] | mortality at 500 ppm [5] | mortality at 1 ppm [6] | mortality at 2500 ppm [7] | mortality at 2500 ppm [8]

Cc1cc(C2=NSC(c3cc(Cl)cc(Cl)c3)(C(F)(F)F)C2F)ccc1C(=O)NCC(=O)NCC(F)(F)F (stereo not drawn) [Compound 5-1, 4-[5-(3,5-dichlorophenyl)-4-fluoro-5-(trifluoromethyl)-4H-isothiazol-3-yl]-2-methyl-N-[2-oxo-2-(2,2,2-trifluoroethylamino)ethyl]benzamide]
≥ 75%: mortality at 500 ppm [1] | mortality at 2500 ppm [2] | mortality at 2500 ppm [3] | mortality at 500 ppm [4] | mortality at 2500 ppm [9] | mortality at 2500 ppm [7] | mortality at 2500 ppm [8] | mortality at 500 ppm [10]

Cc1cc(C2=NSC(c3cc(Cl)cc(Cl)c3)(C(F)(F)F)C2)ccc1C(=O)NCC(=O)NCC(F)(F)F (stereo not drawn) [Compound 2-1, 4-[5-(3,5-Dichlorophenyl)-5-trifluoromethyl-4H-isothiazol-3-yl]-2-methyl-N-[2-oxo-2-(2,2,2-trifluoroethylamino)ethyl]benzamide]
≥ 75%: mortality at 500 ppm [11] | mortality at 500 ppm [1] | mortality at 2500 ppm [2] | mortality at 2500 ppm [3] | mortality at 500 ppm [4] | mortality at 500 ppm [5] | mortality at 1 ppm [6] | mortality at 2500 ppm [9] | mortality at 2500 ppm [7] | mortality at 2500 ppm [8] | mortality at 1 ppm [12] | mortality at 500 ppm [10]

CCNC(=O)N/N=C/c1ccc(C2=NSC(c3cc(Cl)cc(Cl)c3)(C(F)(F)F)C2)cc1C (stereo not drawn) [Compound 1-5, 1-[(E)-[4-[5-(3,5-dichlorophenyl)-5-(trifluoromethyl)-4H-isothiazol-3-yl]-2-methyl-phenyl]methyleneamino]-3-ethyl-urea]
≥ 75%: mortality at 500 ppm [1] | mortality at 2500 ppm [2] | mortality at 2500 ppm [3] | mortality at 500 ppm [4] | mortality at 1 ppm [6] | mortality at 2500 ppm [9] | mortality at 2500 ppm [7] | mortality at 2500 ppm [8]
